Test results as given in the NIST ThermoML archive (doi:10.1021/acs.jced.8b00692).
± gives the expanded uncertainty stated by the source.

Assay: xn = mol fraction of the nth substance listed
Conditions: 102 kPa, Liquid; for viscosity: Concentric cylinders viscometry; for speed of sound: Frequency=3 MHz, Single path-length method; for mass density: Vibrating tube method

CCCCCCCCCCCCC1CCCCC1 [dodecylcyclohexane] + CCCCCCCCCCCCCCCC
Conditions	mass density [kg/m3]	speed of sound [m/s]	viscosity [mPa·s]
293.15 K, x1 = 0.2002	783.66 ± 0.81	1370.4 ± 0.7	4.02 ± 0.02
293.15 K, x1 = 0.4001	793.67 ± 0.81	1384 ± 0.7	4.72 ± 0.02
293.15 K, x1 = 0.5001	798.59 ± 0.81	1390.6 ± 0.7	5.11 ± 0.02
293.15 K, x1 = 0.6003	803.47 ± 0.81	1396.7 ± 0.7	5.49 ± 0.05
293.15 K, x1 = 0.8001	812.98 ± 0.81	1410.4 ± 0.8	6.49 ± 0.03
293.15 K, x1 = 1	822.31 ± 0.81	1423.3 ± 0.9	7.76 ± 0.04
303.15 K, x1 = 0.2002	776.77 ± 0.81	1333.2 ± 0.7	3.17 ± 0.02
303.15 K, x1 = 0.4001	786.84 ± 0.81	1347 ± 0.7	3.66 ± 0.02
303.15 K, x1 = 0.5001	791.79 ± 0.81	1353.7 ± 0.7	3.95 ± 0.02
303.15 K, x1 = 0.6003	796.69 ± 0.81	1359.9 ± 0.7	4.23 ± 0.02
303.15 K, x1 = 0.8001	806.26 ± 0.81	1373.4 ± 0.8	4.93 ± 0.02
303.15 K, x1 = 1	815.65 ± 0.81	1386.3 ± 0.9	5.81 ± 0.03
313.15 K, x1 = 0.2002	769.91 ± 0.81	1296.9 ± 0.7	2.56 ± 0.02
313.15 K, x1 = 0.4001	780.03 ± 0.81	1310.8 ± 0.7	2.92 ± 0.02
313.15 K, x1 = 0.5001	785.01 ± 0.81	1317.6 ± 0.7	3.13 ± 0.02
313.15 K, x1 = 0.6003	789.93 ± 0.81	1323.8 ± 0.7	3.34 ± 0.02
313.15 K, x1 = 0.8001	799.57 ± 0.81	1337.3 ± 0.8	3.85 ± 0.02
313.15 K, x1 = 1	809.01 ± 0.81	1350.4 ± 0.9	4.48 ± 0.02
323.15 K, x1 = 0.2002	763.05 ± 0.81	1261.2 ± 0.7	2.1 ± 0.02
323.15 K, x1 = 0.4001	773.23 ± 0.81	1275.3 ± 0.7	2.38 ± 0.02
323.15 K, x1 = 0.5001	778.23 ± 0.81	1282.1 ± 0.7	2.54 ± 0.02
323.15 K, x1 = 0.6003	783.19 ± 0.81	1288.5 ± 0.7	2.7 ± 0.02
323.15 K, x1 = 0.8001	792.89 ± 0.81	1302 ± 0.8	3.09 ± 0.02
323.15 K, x1 = 1	802.37 ± 0.81	1315.2 ± 0.9	3.55 ± 0.02
333.15 K, x1 = 0.2002	756.19 ± 0.81	1226.5 ± 0.7	1.76 ± 0.01
333.15 K, x1 = 0.4001	766.43 ± 0.81	1240.6 ± 0.7	1.97 ± 0.02
333.15 K, x1 = 0.5001	771.46 ± 0.81	1247.5 ± 0.7	2.1 ± 0.02
333.15 K, x1 = 0.6003	776.44 ± 0.81	1254.3 ± 0.7	2.23 ± 0.02
333.15 K, x1 = 0.8001	786.2 ± 0.81	1267.8 ± 0.8	2.53 ± 0.02
333.15 K, x1 = 1	795.74 ± 0.81	1281.1 ± 0.9	2.88 ± 0.02
343.15 K, x1 = 0.2002	749.3 ± 0.8	–	1.49 ± 0.01
343.15 K, x1 = 0.4001	759.7 ± 0.8	–	1.67 ± 0.01
343.15 K, x1 = 0.5001	764.7 ± 0.8	–	1.77 ± 0.01
343.15 K, x1 = 0.6003	769.7 ± 0.8	–	1.88 ± 0.02
343.15 K, x1 = 0.8001	779.6 ± 0.8	–	2.11 ± 0.02
343.15 K, x1 = 1	789.1 ± 0.8	–	2.39 ± 0.02
353.15 K, x1 = 0.2002	742.4 ± 0.8	–	1.28 ± 0.01
353.15 K, x1 = 0.4001	752.9 ± 0.8	–	1.43 ± 0.01
353.15 K, x1 = 0.5001	757.9 ± 0.8	–	1.51 ± 0.01
353.15 K, x1 = 0.6003	763 ± 0.8	–	1.6 ± 0.01
353.15 K, x1 = 0.8001	772.9 ± 0.8	–	1.79 ± 0.02
353.15 K, x1 = 1	782.5 ± 0.8	–	2.01 ± 0.02
363.15 K, x1 = 0.2002	735.6 ± 0.8	–	1.14 ± 0.01
363.15 K, x1 = 0.4001	746.1 ± 0.8	–	1.24 ± 0.01
363.15 K, x1 = 0.5001	751.1 ± 0.8	–	1.31 ± 0.01
363.15 K, x1 = 0.6003	756.2 ± 0.8	–	1.38 ± 0.01
363.15 K, x1 = 0.8001	766.2 ± 0.8	–	1.54 ± 0.01
363.15 K, x1 = 1	775.9 ± 0.8	–	1.72 ± 0.02
373.15 K, x1 = 0.2002	728.7 ± 0.8	–	0.978 ± 0.012
373.15 K, x1 = 0.4001	739.3 ± 0.8	–	1.08 ± 0.01
373.15 K, x1 = 0.5001	744.3 ± 0.8	–	1.14 ± 0.01
373.15 K, x1 = 0.6003	749.4 ± 0.8	–	1.21 ± 0.01
373.15 K, x1 = 0.8001	759.5 ± 0.8	–	1.34 ± 0.01
373.15 K, x1 = 1	769.2 ± 0.8	–	1.48 ± 0.01
